Laboratory results from US8889874B2, “Imidazolone-chalcone derivatives as potential anticancer agent and process for the preparation thereof” (Council of Scientific and Industrial Research, priority 2010, dated 2014).
Where two headings read alike, the source gives them in different places.

What was measured:
Format in all cases: cell-based, human
CAKI-1 (renal) = test: NCI anticancer screen, SRB assay, 48 h; conditions: Homo sapiens
How it was run: (§1)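 Sulforhodamine B protein assay read cell growth after 48 h of continuous compound exposure. Dose-response curves per cell line used at least five 10-fold-diluted concentrations, within a panel of fifty-three human lines from nine tumour types.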

[1] = test system: A549/ATCC (non-small cell lung); test: NCI anticancer screen, SRB assay, 48 h; conditions: Homo sapiens
How it was run: as §1

SK-MEL-2 (melanoma) = test: NCI anticancer screen, SRB assay, 48 h; conditions: Homo sapiens
How it was run: as §1

[2] = test system: NCI-H522 (non-small cell lung); test: NCI anticancer screen, SRB assay, 48 h; conditions: Homo sapiens
How it was run: as §1

SN12C (renal) = test: NCI anticancer screen, SRB assay, 48 h; conditions: Homo sapiens, SN12C
How it was run: as §1

HCT-15 (colon) = test: NCI anticancer screen, SRB assay, 48 h; conditions: Homo sapiens
How it was run: as §1

COLO 205 (colon) = test: NCI anticancer screen, SRB assay, 48 h; conditions: Homo sapiens, COLO 205
How it was run: as §1

OVCAR-3 (ovarian) = test: NCI anticancer screen, SRB assay, 48 h; conditions: Homo sapiens
How it was run: as §1

KM12 (colon) = test: NCI anticancer screen, SRB assay, 48 h; conditions: Homo sapiens
How it was run: as §1

SF-539 (CNS) = test: NCI anticancer screen, SRB assay, 48 h; conditions: Homo sapiens
How it was run: as §1

UO-31 (renal) = test: NCI anticancer screen, SRB assay, 48 h; conditions: Homo sapiens
How it was run: as §1

MDA-MB-435 (melanoma) = test: NCI anticancer screen, SRB assay, 48 h; conditions: Homo sapiens
How it was run: as §1

[3] = test system: NCI-H23 (non-small cell lung); test: NCI anticancer screen, SRB assay, 48 h; conditions: Homo sapiens
How it was run: as §1

A498 (renal) = test: NCI anticancer screen, SRB assay, 48 h; conditions: Homo sapiens
How it was run: as §1

[4] = test system: EKVX (non-small cell lung); test: NCI anticancer screen, SRB assay, 48 h; conditions: Homo sapiens
How it was run: as §1

[5] = test system: HOP-92 (non-small cell lung); test: NCI anticancer screen, SRB assay, 48 h; conditions: Homo sapiens
How it was run: as §1

PC-3 (prostate) = test: NCI anticancer screen, SRB assay, 48 h; conditions: Homo sapiens
How it was run: as §1

TD-47D (breast) = test: NCI anticancer screen, SRB assay, 48 h; conditions: Homo sapiens
How it was run: as §1

BT-549 (breast) = test: NCI anticancer screen, SRB assay, 48 h; conditions: Homo sapiens
How it was run: as §1

HCC-2998 (colon) = test: NCI anticancer screen, SRB assay, 48 h; conditions: Homo sapiens
How it was run: as §1

OVCAR-5 (ovarian) = test: NCI anticancer screen, SRB assay, 48 h; conditions: Homo sapiens
How it was run: as §1

SK-MEL-5 (melanoma) = test: NCI anticancer screen, SRB assay, 48 h; conditions: Homo sapiens
How it was run: as §1

TK-10 (renal) = test: NCI anticancer screen, SRB assay, 48 h; conditions: Homo sapiens
How it was run: as §1

[6] = test system: NCI-H322M (non-small cell lung); test: NCI anticancer screen, SRB assay, 48 h; conditions: Homo sapiens
How it was run: as §1

[7] = test system: Leukemia cancer cell lines; test: NCI anticancer screen, SRB assay, panel summary; conditions: Homo sapiens
How it was run: as §1

Renal cancer cell lines = test: NCI anticancer screen, SRB assay, panel summary; conditions: Homo sapiens
How it was run: as §1

Breast cancer cell lines = test: NCI anticancer screen, SRB assay, panel summary; conditions: Homo sapiens
How it was run: as §1

[8] = test system: Ovarian cancer cell lines; test: NCI anticancer screen, SRB assay, panel summary; conditions: Homo sapiens
How it was run: as §1

[9] = test system: Melanoma cancer cell lines; test: NCI anticancer screen, SRB assay, panel summary; conditions: for GI50: Homo sapiens
How it was run: as §1

[10] = test system: Non-small cell lung cancer cell lines; test: NCI anticancer screen, SRB assay, panel summary; conditions: Homo sapiens
How it was run: as §1

[11] = test system: Prostate cancer cell lines; test: NCI anticancer screen, SRB assay, panel summary
How it was run: as §1

Colon cancer cell lines = test: NCI anticancer screen, SRB assay, panel summary; conditions: for GI50: Homo sapiens
How it was run: as §1

CNS cancer cell lines = test: NCI anticancer screen, SRB assay, panel summary; conditions: for GI50: Homo sapiens
How it was run: as §1

[12] = 48 h exposure, SRB, read-out: GI50
[13] = read-out: pGI50 (-log of molar concentration causing 50% inhibition of net cell growth) (converted)

COc1cc(/C=C/C(=O)c2cccc(-n3cc(-c4ccccc4)[nH]c3=O)c2)ccc1O [3a, 1-3-[(E)-3-(4-hydroxy-3-methoxyphenyl)-2-propenoyl]phenyl-4-phenyl-2,3-dihydro-1H-2-imidazolone]
GI50 (CAKI-1 (renal); [12]): 2190 nM
GI50 (CAKI-1 (renal); [13]): 2190 nM
GI50 [1, 12]: 3850 nM
GI50 [1, 13]: 3890 nM
GI50 (SK-MEL-2 (melanoma); [12]): 3650 nM
GI50 (SK-MEL-2 (melanoma); [13]): 3630 nM
GI50 [2, 12]: 2360 nM
GI50 [2, 13]: 2340 nM
GI50 (SN12C (renal); SN 12C, read-out: pGI50 (-log of molar concentration causing 50% inhibition of net cell growth) (converted)): 3310 nM
GI50 (SN12C (renal); [12]): 3310 nM
GI50 (HCT-15 (colon); [12]): 2730 nM
GI50 (HCT-15 (colon); [13]): 2750 nM
GI50 (COLO 205 (colon); COLO205, read-out: pGI50 (-log of molar concentration causing 50% inhibition of net cell growth) (converted)): 2190 nM
GI50 (COLO 205 (colon); [12]): 2210 nM
GI50 (OVCAR-3 (ovarian); [12]): 2290 nM
GI50 (OVCAR-3 (ovarian); [13]): 2290 nM
GI50 (KM12 (colon); [12]): 1610 nM
GI50 (KM12 (colon); [13]): 1620 nM
GI50 (SF-539 (CNS); [12]): 1910 nM
GI50 (SF-539 (CNS); [13]): 1910 nM
GI50 (UO-31 (renal); [12]): 2180 nM
GI50 (UO-31 (renal); [13]): 2190 nM
GI50 (MDA-MB-435 (melanoma); [12]): 2140 nM
GI50 (MDA-MB-435 (melanoma); [13]): 2140 nM
GI50 [3, 12]: 2020 nM
GI50 [3, 13]: 2040 nM
GI50 (A498 (renal); [12]): 1680 nM
GI50 (A498 (renal); [13]): 1700 nM
GI50 [4, 12]: 3900 nM
GI50 [4, 13]: 3890 nM
GI50 [5, 12]: 2270 nM
GI50 [5, 13]: 2290 nM
GI50 (PC-3 (prostate); PC-3, read-out: pGI50 (-log of molar concentration causing 50% inhibition of net cell growth) (converted)): 2510 nM
GI50 (PC-3 (prostate); one prostate cancer cell line (PC-3), exposure at least 48 hrs, read-out: GI50): 2520 nM
GI50 (TD-47D (breast); [12]): 2700 nM
GI50 (TD-47D (breast); [13]): 2690 nM
GI50 (BT-549 (breast); [12]): 2780 nM
GI50 (BT-549 (breast); [13]): 2750 nM
GI50 (HCC-2998 (colon); [12]): 1510 nM
GI50 (HCC-2998 (colon); [13]): 1510 nM
GI50 (OVCAR-5 (ovarian); [12]): 2040 nM
GI50 (OVCAR-5 (ovarian); [13]): 2040 nM
GI50 (SK-MEL-5 (melanoma); [12]): 1590 nM
GI50 (SK-MEL-5 (melanoma); [13]): 1580 nM
GI50 (TK-10 (renal); [12]): 5290 nM
GI50 (TK-10 (renal); [13]): 5250 nM
GI50 [6, 12]: 3390 nM
GI50 [6, 13]: 3390 nM
GI50 ([7]; Leukemia panel, log of concentration in mol/L causing 50% inhibition of net cell growth, read-out: mean graph midpoint (MG_MID) of Log10 GI50 (converted)): 1860 nM
LC50 ([7]; Leukemia panel, log of concentration leading to 50% net cell death, read-out: mean graph midpoint (MG_MID) of Log10 LC50 (converted)): 66100 nM
GI50 ([7]; two leukemia cancer cell lines (RPMI-8226 and K-562), exposure at least 48 hrs, read-out: GI50, range over the panel): 1670 to 2040 nM
GI50 (Renal cancer cell lines; Renal panel, log of concentration in mol/L causing 50% inhibition of net cell growth, read-out: mean graph midpoint (MG_MID) of Log10 GI50 (converted)): 2400 nM
LC50 (Renal cancer cell lines; Renal panel, log of concentration leading to 50% net cell death, read-out: mean graph midpoint (MG_MID) of Log10 LC50 (converted)): 34700 nM
GI50 (Renal cancer cell lines; eight renal cancer cell lines, exposure at least 48 hrs, read-out: GI50, range over the panel): 1350 to 5290 nM
GI50 (Breast cancer cell lines; Breast panel, log of concentration in mol/L causing 50% inhibition of net cell growth, read-out: mean graph midpoint (MG_MID) of Log10 GI50 (converted)): 2820 nM
LC50 (Breast cancer cell lines; Breast panel, log of concentration leading to 50% net cell death, read-out: mean graph midpoint (MG_MID) of Log10 LC50 (converted)): 53700 nM
GI50 (Breast cancer cell lines; five breast cancer cell lines, exposure at least 48 hrs, read-out: GI50, range over the panel): 1550 to 4160 nM
GI50 ([8]; Ovarian panel, log of concentration in mol/L causing 50% inhibition of net cell growth, read-out: mean graph midpoint (MG_MID) of Log10 GI50 (converted)): 3240 nM
LC50 ([8]; Ovarian panel, log of concentration leading to 50% net cell death, read-out: mean graph midpoint (MG_MID) of Log10 LC50 (converted)): 11700 nM
GI50 ([8]; six ovarian cancer cell lines, exposure at least 48 hrs, read-out: GI50, range over the panel): 2040 to 5190 nM
GI50 ([9]; Melanoma panel, log of concentration in mol/L causing 50% inhibition of net cell growth, read-out: mean graph midpoint (MG_MID) of Log10 GI50 (converted)): 2570 nM
GI50 ([9]; nine melanoma cancer cell lines, exposure at least 48 hrs, read-out: GI50, range over the panel): 1590 to 6810 nM
mean graph midpoint (MG_MID) of Log10 LC50 ([9]; Melanoma panel, log of concentration leading to 50% net cell death): 4.06
GI50 ([10]; Non-small cell lung panel, log of concentration in mol/L causing 50% inhibition of net cell growth, read-out: mean graph midpoint (MG_MID) of Log10 GI50 (converted)): 2570 nM
LC50 ([10]; Non-small cell lung panel, log of concentration leading to 50% net cell death, read-out: mean graph midpoint (MG_MID) of Log10 LC50 (converted)): 41700 nM
GI50 ([10]; nine non-small cell lung cancer cell lines, exposure at least 48 hrs, read-out: GI50, range over the panel): 1480 to 3900 nM
GI50 ([11]; Homo sapiens, log of concentration in mol/L causing 50% inhibition of net cell growth, read-out: mean graph midpoint (MG_MID) of Log10 GI50 (converted)): 2510 nM
LC50 ([11]; Homo sapiens, log of concentration leading to 50% net cell death, read-out: mean graph midpoint (MG_MID) of Log10 LC50 (converted)): ≥ 100000 nM
mean graph midpoint (MG_MID) of Log10 TGI ([11]; log of concentration resulting in total inhibition of net cell growth): 5.13
mean graph midpoint (MG_MID) of Log10 LC50 (Colon cancer cell lines; Colon panel, log of concentration leading to 50% net cell death): 4.68
GI50 (Colon cancer cell lines; Colon panel, log of concentration in mol/L causing 50% inhibition of net cell growth, read-out: mean graph midpoint (MG_MID) of Log10 GI50 (converted)): 2140 nM
GI50 (Colon cancer cell lines; seven colon cancer cell lines, exposure at least 48 hrs, read-out: GI50, range over the panel): 1400 to 3770 nM
mean graph midpoint (MG_MID) of Log10 LC50 (CNS cancer cell lines; CNS panel, log of concentration leading to 50% net cell death): 4.62
GI50 (CNS cancer cell lines; CNS panel, log of concentration in mol/L causing 50% inhibition of net cell growth, read-out: mean graph midpoint (MG_MID) of Log10 GI50 (converted)): 2570 nM
GI50 (CNS cancer cell lines; six CNS cancer cell lines, exposure at least 48 hrs, read-out: GI50, range over the panel): 1910 to 3900 nM
